Where two headings read alike, the source gives them in different places.
Test: Solubility studies of fulvestrant in solvents, co-solvents, oils and release rate modifiers
Assay type: physicochemical
Details: for solubility: read-out: Fulvestrant solubility achieved
Experimental: Solubility studies of fulvestrant were performed using various combinations of solvent, co-solvents, oils and release rate modifiers. The resultant data are shown herein below Table 1.

Fulvestrant solubility achieved (Benzyl alcohol (4 v/v %):Diethylene glycol monoethyl ether (q.s. to 1.7 mL)): 300 mg/1.7 mL
solubility (Benzyl alcohol (10 v/v %):Castor oil (50 v/v %):Diethylene glycol monoethyl ether (q.s. to 1 mL)): 151 mg/mL
solubility (benzyl alcohol / diethylene glycol monoethyl ether mixture, Benzyl alcohol (2 v/v %):Diethylene glycol monoethyl ether (q.s. to 1 mL)): 200 mg/mL
Structure (SMILES): C[C@]12CC[C@@H]3c4ccc(O)cc4C[C@@H](CCCCCCCCC[S+]([O-])CCCC(F)(F)C(F)(F)F)[C@H]3[C@@H]1CC[C@@H]2O (stereo partly drawn) [Fulvestrant, 7-alpha-[9-[(4,4,5,5,5-pentafluoropentyl)sulfinyl]nonyl]estra-1,3,5(10)-triene-3,17-beta-diol]
